Test [1] deals with T1, Sphingosine kinase 2 (Homo sapiens, UniProt Q9NRA0).
T1 sequence (Q9NRA0 whole entry): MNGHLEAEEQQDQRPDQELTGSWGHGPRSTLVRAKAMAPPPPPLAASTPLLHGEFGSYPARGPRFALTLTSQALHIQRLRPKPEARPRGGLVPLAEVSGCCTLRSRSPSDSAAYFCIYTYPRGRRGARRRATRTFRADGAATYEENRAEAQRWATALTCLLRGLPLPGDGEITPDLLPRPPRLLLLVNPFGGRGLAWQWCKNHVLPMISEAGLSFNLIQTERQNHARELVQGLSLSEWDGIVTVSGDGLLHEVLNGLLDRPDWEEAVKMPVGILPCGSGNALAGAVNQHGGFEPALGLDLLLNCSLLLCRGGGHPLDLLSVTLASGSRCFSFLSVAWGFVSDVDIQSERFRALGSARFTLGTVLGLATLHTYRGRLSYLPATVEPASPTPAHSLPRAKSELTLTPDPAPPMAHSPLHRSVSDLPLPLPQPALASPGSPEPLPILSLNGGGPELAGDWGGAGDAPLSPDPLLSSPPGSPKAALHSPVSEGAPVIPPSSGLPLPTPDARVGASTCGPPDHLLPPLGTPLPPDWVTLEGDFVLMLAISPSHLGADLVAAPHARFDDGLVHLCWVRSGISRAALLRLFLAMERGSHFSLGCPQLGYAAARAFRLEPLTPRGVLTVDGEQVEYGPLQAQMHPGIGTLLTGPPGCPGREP
As to the kind of experiment: Inhibition of recombinant SphK2 (unknown origin) using sphingosine as substrate assessed as inhibition constant by Lineweaver-burk plot analysis.

In test [2] the test system is MCF7. Put plainly: Antiproliferative activity against human MCF7 cells assessed as cell growth inhibition measured after 48 hrs by MTT assay. It counts as functional, cell-based. The note with it: MCF7, 48 h. (In general: Formazan colour is commonly taken as a measure of viable cells.)
In another test the test system is U-937. Put plainly: Antiproliferative activity against human U-937 cells assessed as cell growth inhibition measured after 48 hrs by MTT assay. It counts as functional, cell-based. The note with it: U-937, 48 h.
The next test has as its system MGC-803. As to the kind of experiment: Antiproliferative activity against human MGC-803 cells assessed as cell growth inhibition measured after 48 hrs by MTT assay. The format is functional, cell-based. The note with it: MGC-803, 48 h.
Test [3] deals with T1, Sphingosine kinase 2. Put plainly: Inhibition of SphK2 (unknown origin) using NBD-Sph as substrate by fluorescent plate reader analysis.
For a further test, the target named is Sphingosine kinase 1 (Homo sapiens, UniProt Q9NYA1). As to the kind of experiment: Inhibition of SphK1 (unknown origin) using D-Sph as substrate incubated for 40 mins by ADP-Glo Plus luminescence kinase assay.
Sequence of Sphingosine kinase 1 (Q9NYA1 whole entry): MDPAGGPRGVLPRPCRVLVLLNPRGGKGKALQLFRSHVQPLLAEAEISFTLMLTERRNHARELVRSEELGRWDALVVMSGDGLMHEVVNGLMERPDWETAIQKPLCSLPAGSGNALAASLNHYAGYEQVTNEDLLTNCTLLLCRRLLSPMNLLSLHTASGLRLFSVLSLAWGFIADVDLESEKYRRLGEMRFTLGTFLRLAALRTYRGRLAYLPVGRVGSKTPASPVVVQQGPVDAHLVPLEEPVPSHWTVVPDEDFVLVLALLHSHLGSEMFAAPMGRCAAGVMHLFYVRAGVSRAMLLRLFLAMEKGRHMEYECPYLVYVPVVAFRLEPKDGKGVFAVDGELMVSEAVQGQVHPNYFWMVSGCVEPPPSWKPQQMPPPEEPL
In test [4] the test system is MCF7. Put plainly: Inhibition of cell migration in human MCF7 cells assessed as reduction in scratch healing rate measured after 24 to 48 hrs by microscopic analysis. The format is functional, cell-based. The following applies: dose 20-100 µM, time lower 24.0 hrs, time upper […].
For test [5], the target named is T2, Sphingosine kinase 2 (Homo sapiens) (UniProt Q9NRA0).
T2 sequence (whole entry): T1 sequence (Q9NRA0 whole entry)
Put plainly: Inhibition of SphK2 (unknown origin) using NBD-Sph as substrate at 10 uM by fluorescent plate reader analysis relative to control.

As to `CCCCOc1ccc(CC/C=C2\SC(=O)N(CCN)C2=O)cc1`, the Ki on Sphingosine kinase 2 [1] amounted to 6.5 µM.

Turning to `NC(=O)CNC(=O)c1ccc(COc2cccc(OCc3ccccc3)c2)cc1`, the IC50 in the test on MCF7 [2] is 20.3 µM; in the test with U-937, 32.7 µM; in the test on MGC-803, 33.8 µM; against Sphingosine kinase 2 [3], 0.0115 µM.

With `NC(=O)[C@@H]1CCCN1Cc1ccc(COc2cccc(OCc3ccccc3)c2)cc1`, the IC50 in the test with MCF7 [2] was 21.5 µM; in the test on U-937 it was 43.3 µM; in the test with MGC-803, 63.6 µM; against Sphingosine kinase 2 [3], more than 10 µM.

`O=C(c1ccc(OCc2noc(-c3ccc(C(F)(F)F)cc3)n2)cc1)N1CCC[C@H]1CO`: the IC50 with MCF7 [2] was determined as 51.9 µM; in the test on U-937 it was 29.4 µM; with MGC-803, 43 µM; on Sphingosine kinase 2 [3], 2.46 µM.

For the compound `NC(=O)[C@H]1CCCN1C(=O)c1ccc(OCc2noc(-c3ccc(C(F)(F)F)cc3)n2)cc1`, the IC50 with MCF7 [2] was determined as 24.4 µM; on Sphingosine kinase 1, 21.9 µM; in the test on U-937, 25.6 µM; with MGC-803, 19.2 µM; against Sphingosine kinase 2 [3], 0.0024 µM. Further, in the test with MCF7 [4], the inhibition result is “Dose-Dependent Effect”.

For the compound `OC[C@@H]1CCCN1Cc1ccc(COc2cccc(OCc3ccccc3)c2)cc1`, the IC50 in the test on MCF7 [2] was more than 100 µM; at Sphingosine kinase 1, 0.917 µM; with U-937, 37.6 µM; in the test on MGC-803, 32.2 µM; on Sphingosine kinase 2 [3], 0.00191 µM.

On to `CCCCCOc1ccc2cc(-c3noc([C@@H]4[C@@H](O)CCN4C(=N)N)n3)ccc2c1`, for which the IC50 at Sphingosine kinase 2 [3] turned out to be 4 µM.

With `NC(=O)[C@@H]1CCCN1C(=O)c1ccc(OCc2noc(-c3ccc(C(F)(F)F)cc3)n2)cc1`, the IC50 in the test on MCF7 [2] is 12.8 µM; with U-937 it was 25.6 µM; in the test with MGC-803 it was 22.9 µM; at Sphingosine kinase 2 [3], more than 10 µM.

Regarding `O=C(NCCO)c1ccc(COc2cccc(OCc3ccccc3)c2)cc1`, the IC50 is 34.7 µM in the test with MCF7 [2]; 35.6 µM at Sphingosine kinase 1; 34.7 µM with U-937; 37.7 µM with MGC-803; 1.25 µM against Sphingosine kinase 2 [3].

For the compound `NC(=O)CNC(=O)c1ccc(OCc2noc(-c3ccc(Cl)cc3)n2)cc1`, the IC50 was 55.4 µM with MCF7 [2], 10 µM in the test with U-937, 29.8 µM in the test on MGC-803 and more than 10 µM against Sphingosine kinase 2 [3]. In addition, the inhibition in test [5] is less than 50%.

As to `O=C(c1ccc(OCc2noc(-c3ccc(Cl)cc3)n2)cc1)N1CCC[C@@H]1CO`, the IC50 in the test on MCF7 [2] was 45.3 µM; on Sphingosine kinase 1, 7.76 µM; in the test on U-937 it was 2.95 µM; with MGC-803 it was 40.3 µM; at Sphingosine kinase 2 [3], more than 10 µM. Further, in test [5], the inhibition was less than 50%.

In the case of `OCC1CCCN1Cc1ccc(COc2cccc(OCc3ccccc3)c2)cc1` (single isomer, unassigned), the IC50 with MCF7 [2] was more than 100 µM; at Sphingosine kinase 1 it was 0.446 µM; in the test on U-937, more than 80.2 µM; with MGC-803 it was 15.7 µM; at Sphingosine kinase 2 [3], 0.0115 µM.

Turning to `NC(=O)CNC(=O)c1ccc(OCc2noc(-c3ccc(C(F)(F)F)cc3)n2)cc1`, the IC50 with MCF7 [2] was 39.7 µM; with U-937, 8.44 µM; in the test with MGC-803 it was 10.9 µM; against Sphingosine kinase 2 [3] it was more than 10 µM.

`O=C(NCCO)c1ccc(OCc2noc(-c3ccc(Cl)cc3)n2)cc1`: the IC50 was 55.2 µM in the test with MCF7 [2], 20.1 µM in the test with U-937, 37 µM in the test on MGC-803 and more than 10 µM at Sphingosine kinase 2 [3]. Besides, the inhibition in test [5] was less than 50%.

Regarding `O=C(c1ccc(OCc2noc(-c3ccc(C(F)(F)F)cc3)n2)cc1)N1CCC[C@@H]1CO`, the IC50 worked out at 21.1 µM with MCF7 [2]; 17.7 µM at Sphingosine kinase 1; 51.1 µM with U-937; 35.9 µM with MGC-803; 0.00343 µM on Sphingosine kinase 2 [3]. Further, the inhibition result in the test with MCF7 [4] is “Dose-Dependent Effect”.

`O=C(c1ccc(OCc2noc(-c3ccc(Cl)cc3)n2)cc1)N1CCC[C@H]1CO`: the IC50 with MCF7 [2] is 8.61 µM; on Sphingosine kinase 1, 8.96 µM; with U-937, 17.3 µM; with MGC-803, 22.9 µM; against Sphingosine kinase 2 [3], more than 10 µM. The compound also gave an inhibition in test [5] of less than 50%.

As to `O=C(c1ccc(COc2cccc(OCc3ccccc3)c2)cc1)N1CCC[C@H]1CO`, the IC50 in the test on MCF7 [2] was more than 100 µM; in the test with U-937, 29.9 µM; in the test with MGC-803, more than 79.8 µM; against Sphingosine kinase 2 [3], more than 10 µM. In test [5], this compound yielded an inhibition of less than 50%.

On to `NC(=O)CNCc1ccc(COc2cccc(OCc3ccccc3)c2)cc1`, for which the IC50 is 42.7 µM with MCF7 [2]; 30.4 µM at Sphingosine kinase 1; more than 82.3 µM with U-937; 55.3 µM in the test on MGC-803; 0.0462 µM against Sphingosine kinase 2 [3].

In the case of `NCCNC(=O)c1ccc(COc2cccc(OCc3ccccc3)c2)cc1`, the IC50 in the test on MCF7 [2] was 53.5 µM; in the test on U-937, 51.4 µM; with MGC-803 it was 25.1 µM; at Sphingosine kinase 2 [3] it was 0.0416 µM.

As to `NC(=O)[C@@H]1CCCN1C(=O)c1ccc(OCc2noc(-c3ccc(Cl)cc3)n2)cc1`, the IC50 in the test on MCF7 [2] was more than 100 µM; in the test on U-937, 31.2 µM; in the test with MGC-803 it was 40.6 µM; against Sphingosine kinase 2 [3] it was more than 10 µM. In test [5], this compound yielded an inhibition of less than 50%.

Turning to `NC(=O)[C@@H]1CCCN1C(=O)c1ccc(COc2cccc(OCc3ccccc3)c2)cc1`, the IC50 with MCF7 [2] is more than 100 µM; at Sphingosine kinase 1 it was 66.2 µM; in the test on U-937, more than 100 µM; in the test with MGC-803 it was 38.6 µM; against Sphingosine kinase 2 [3], more than 10 µM.

On to `NC(=O)[C@H]1CCCN1Cc1ccc(COc2cccc(OCc3ccccc3)c2)cc1`, for which the IC50 in the test on MCF7 [2] is 18.3 µM; on Sphingosine kinase 1 it was 0.924 µM; in the test with U-937, 41.5 µM; in the test on MGC-803, 65.2 µM; on Sphingosine kinase 2 [3], more than 10 µM.

As for `NCCNC(=O)c1ccc(OCc2noc(-c3ccc(C(F)(F)F)cc3)n2)cc1`, the IC50 is 39.6 µM in the test on MCF7 [2], 32.9 µM in the test on U-937, 40.8 µM in the test with MGC-803 and more than 10 µM on Sphingosine kinase 2 [3].

Turning to `O=C(c1ccc(COc2cccc(OCc3ccccc3)c2)cc1)N1CCC[C@@H]1CO`, the IC50 with MCF7 [2] stood at 30.5 µM; with U-937, 69.5 µM; with MGC-803, 61.8 µM; at Sphingosine kinase 2 [3] it was 1.23 µM.

Turning to `O=C(NCCO)c1ccc(OCc2noc(-c3ccc(C(F)(F)F)cc3)n2)cc1`, the IC50 came out at 58 µM in the test on MCF7 [2], 68.9 µM in the test on U-937, 26.1 µM in the test with MGC-803 and 0.0358 µM against Sphingosine kinase 2 [3].

Take `NC(=O)[C@H]1CCCN1C(=O)c1ccc(COc2cccc(OCc3ccccc3)c2)cc1`: the IC50 was more than 100 µM with MCF7 [2], 45.6 µM in the test on U-937, more than 81.5 µM with MGC-803 and 0.96 µM against Sphingosine kinase 2 [3].

In the case of `NCCNC(=O)c1ccc(OCc2noc(-c3ccc(Cl)cc3)n2)cc1`, the IC50 with MCF7 [2] was 54 µM; on Sphingosine kinase 1 it was 1.47 µM; in the test on U-937, 31.4 µM; in the test on MGC-803, 42 µM; against Sphingosine kinase 2 [3], more than 10 µM. Besides, in test [5], the inhibition is less than 50%.

For the compound `NC(=O)[C@H]1CCCN1C(=O)c1ccc(OCc2noc(-c3ccc(Cl)cc3)n2)cc1`, the IC50 was 7.63 µM with MCF7 [2], 47.8 µM with U-937, 20.2 µM with MGC-803 and more than 10 µM against Sphingosine kinase 2 [3]. The inhibition in test [5] is less than 50%.

One may read the Ki as the equilibrium dissociation constant of an inhibitor or competing ligand from its target. As a reminder, the IC50 is the concentration that gives 50% inhibition. By inhibition is commonly meant the change of the read-out against control, counted positive when it falls.
